Measured values: patent publication US20060258736A1, “DOSING REGIMEN” (Bristol-Myers Squibb Company, priority 2005, published 2006)
“Also recorded” adds a separate entry of the source.

Assays:
Type in all cases: in vivo, human
[1] = tested on: patients; assay: Neuropathy on the weekly treatment schedule (comparison, n = 48)
[2] = tested on: patients with advanced solid tumors; assay: Phase I clinical trial, twice weekly oral dosing: toxicity (NCI-CTC version 2.0) and dose limiting toxicities; settings: for Neuropathy / neurotoxicity on twice weekly regimen compared to weekly schedule: twice weekly vs weekly
Protocol: Patients with histologically confirmed, advanced solid tumors refractory to standard therapy, ECOG performance status 0-2, and adequate live, renal and bone marrow function without symptomatic brain metastasis or pre-existing neuropathy ≧grade 2 were eligible for the trial.
The starting dose was 60 mg/m^2 with planned dose escalation of 20 mg/m^2 for each next cohort, consisting of at least 3 patients. Cohorts were expanded to 6 patients upon occurrence of a dose limiting toxicity (DLT). No premedication was required.
Toxicity was evaluated according to NCI-CTC (version 2.0).
Dose limiting toxicities (DLTs) were defined as any of the following drug related events occurring during the first cycle (first 4 weeks): grade 4 neutropenia>5 days, febrile neutropenia, grade 4 thrombocytopenia or grade 3 requiring platelet transfusion, any grade 3-4 non-hematological toxicity, QTc interval>500 msec, any significant arrhythmia, any dose reduction or omission due to toxicity.

[3] = tested on: advanced solid tumors refractory to standard therapy; assay: Phase I clinical trial, twice weekly oral dosing: tumor response (modified WHO criteria)
Protocol: Patients with histologically confirmed, advanced solid tumors refractory to standard therapy, ECOG performance status 0-2, and adequate live, renal and bone marrow function without symptomatic brain metastasis or pre-existing neuropathy ≧grade 2 were eligible for the trial. The starting dose was 60 mg/m^2 with planned dose escalation of 20 mg/m^2 for each next cohort, consisting of at least 3 patients. Cohorts were expanded to 6 patients upon occurrence of a dose limiting toxicity (DLT). No premedication was required. Tumor response was evaluated according to the modified WHO criteria.

[4] = any cycle, 19 patients, 60-100 mg/m^2 twice weekly

Neuropathy (any cycle) Grade 1, no. of patients ([1]; Weekly schedule (n = 48)): 6 | Neuropathy (any cycle) Grade 1, percent of patients ([1]; Weekly schedule (n = 48)): 13% | Neuropathy (any cycle) Grade 2, no. of patients ([1]; Weekly schedule (n = 48)): 19 | Neuropathy (any cycle) Grade 2, percent of patients ([1]; Weekly schedule (n = 48)): 40% | Neuropathy (any cycle) Grade 3, no. of patients ([1]; Weekly schedule (n = 48)): 6 | Neuropathy (any cycle) Grade 3, percent of patients ([1]; Weekly schedule (n = 48)): 12% | Neuropathy (any cycle) Total, no. of patients ([1]; Weekly schedule (n = 48)): 31 | Neuropathy (any cycle) Total, percent of patients ([1]; Weekly schedule (n = 48)): 65%
SMILES: COC(=O)O[C@@]12CO[C@@H]1C[C@H](O)[C@@]1(C)C(=O)[C@H](OC(C)=O)C3=C(C)[C@@H](OC(=O)[C@H](O)[C@@H](NC(=O)OC(C)(C)C)C(C)(C)C)C[C@@](O)([C@@H](OC(=O)c4ccccc4)[C@H]21)C3(C)C [Compound I, 3′-tert-butyl-3′-N-tert-butyloxycarbonyl-4-deacetyl-3′-dephenyl-3 ′-N-debenzoyl-4-O-methoxycarbonyl-paclitaxel]
Main and dose limiting toxicity ([1]; weekly treatment regimen): peripheral neuropathy | Dose limiting toxicities (DLTs) ([2]; 60 mg/m^2 twice weekly (n=3), first cycle): No dose limiting toxicities (DLTs) have been observed | Dose limiting toxicities (DLTs), number ([2]; 80 mg/m^2 twice weekly (n=10), first cycle, a grade 3 fatigue and a dose-omission due to grade 2 peripheral neuropathy): 2 | Toxicity shortly after the first cycle (not meeting DLT criteria) ([2]; 100 mg/m^2 twice weekly): one patient developed grade 4 neutropenia, grade 3 fatigue and grade 3 hematuria | Dose limiting toxicities (DLTs) ([2]; 100 mg/m^2 twice weekly, first three patients, first cycle): no DLTs were observed in the first three patients | Neuropathy (any cycle) Grade 1, no. of patients ([2]; Twice weekly schedule (n = 19)): 8 | Neuropathy (any cycle) Grade 1, percent of patients ([2]; Twice weekly schedule (n = 19)): 42% | Neuropathy (any cycle) Grade 2, no. of patients ([2]; Twice weekly schedule (n = 19)): 2 | Neuropathy (any cycle) Grade 2, percent of patients ([2]; Twice weekly schedule (n = 19)): 10% | Neuropathy (any cycle) Total, no. of patients ([2]; Twice weekly schedule (n = 19)): 10 | Neuropathy (any cycle) Total, percent of patients ([2]; Twice weekly schedule (n = 19)): 52% | Drug-related side effects: Abdominal pain, Gr 1-2 (no. of patients) [2, 4]: 2 | Drug-related side effects: Alopecia, Gr 1-2 (no. of patients) [2, 4]: 3 | Drug-related side effects: Anorexia, Gr 1-2 (no. of patients) [2, 4]: 6 | Drug-related side effects: Diarrhea, Gr 1-2 (no. of patients) [2, 4]: 9 | Drug-related side effects: Epistaxis, Gr 1-2 (no. of patients) [2, 4]: 7 | Drug-related side effects: Fatigue, Gr 1-2 (no. of patients) [2, 4]: 7 | Drug-related side effects: Fatigue, Gr 3 (no. of patients) [2, 4]: 2 | Drug-related side effects: Hematuria, Gr 3 (no. of patients) [2, 4]: 1 | Drug-related side effects: Motor neuropathy, Gr 1-2 (no. of patients) [2, 4]: 1 | Drug-related side effects: Myalgia, Gr 1-2 (no. of patients) [2, 4]: 3 | Drug-related side effects: Nausea, Gr 1-2 (no. of patients) [2, 4]: 3 | Drug-related side effects: Neutropenia, Gr 1-2 (no. of patients) [2, 4]: 1 | Drug-related side effects: Neutropenia, Gr 4 (no. of patients) [2, 4]: 1 | Drug-related side effects: Sens. neuropathy, Gr 1-2 (no. of patients) [2, 4]: 10 | Drug-related side effects: Stomatitis, Gr 1-2 (no. of patients) [2, 4]: 1 | Drug-related side effects: Taste disturbance, Gr 1-2 (no. of patients) [2, 4]: 7 | Drug-related side effects: Thrombocytopenia, Gr 1-2 (no. of patients) [2, 4]: 5 | Drug-related side effects: Vomiting, Gr 1-2 (no. of patients) [2, 4]: 2 | Tolerability ([2]; twice weekly treatment regimen): well tolerated | Neuropathy / neurotoxicity on twice weekly regimen compared to weekly schedule [2]: reduces peripheral neuropathy; also recorded: neuropathy appears to be less frequent and less severe; also recorded: Neuropathy appears to occur less frequently and to be less severe than on a weekly treatment schedule | Neuropathy / neurotoxicity on twice weekly regimen compared to weekly schedule ([2]; listed as 3′-tert-butyl-3′-N-tert-butyloxycarbonyl-4-deacetyl-3′-dephenyl-3′-N-debenzoyl-4): may reduce the neurotoxicity of the drug | Confirmed partial responses ([3]; 18 response-evaluable patients): three confirmed partial responses were observed in 18 response-evaluable patients | Confirmed partial responses, no. of patients ([3]; of 3 prostate carcinoma patients): 1 | Confirmed partial responses, no. of patients ([3]; of 6 response-evaluable NSCLC patients): 2 | Antitumor activity ([3]; patients with NSCLC and prostate carcinoma): Promising activity has been observed
